Results published in ChEMBL document CHEMBL5579829, “Discovery of a potent CDKs/FLT3 PROTAC with enhanced differentiation and proliferation inhibition for AML” (Eur J Med Chem, 2024).
Activity calls are given as the source filed them. The rule behind the calls is not given here.

What was measured:
[1] = target: T1, Protein cereblon/Cyclin-dependent kinase 9 (Homo sapiens, UniProt P50750+Q96SW2); test: Protac activity at CRBN/CDK9 in human MV4-11 cells assessed as induction of CDK9 degradation at 2 to 32 nM measured after 3 days by Western blot analysis; format: cell-based; details: dose 2-32 nM, time 3.0 day
Target sequence in this assay (P50750 whole entry, looked up): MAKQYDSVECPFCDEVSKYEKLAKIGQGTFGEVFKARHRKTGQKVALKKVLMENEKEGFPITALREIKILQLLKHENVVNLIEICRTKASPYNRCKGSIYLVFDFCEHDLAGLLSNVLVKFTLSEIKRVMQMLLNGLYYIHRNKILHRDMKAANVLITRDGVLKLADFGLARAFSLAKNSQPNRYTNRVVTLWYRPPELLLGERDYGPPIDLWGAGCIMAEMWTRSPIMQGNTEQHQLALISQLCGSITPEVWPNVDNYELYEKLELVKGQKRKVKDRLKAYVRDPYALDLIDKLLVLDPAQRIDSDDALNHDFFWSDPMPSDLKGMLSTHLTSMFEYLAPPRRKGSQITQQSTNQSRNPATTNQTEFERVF
Target sequence in this assay (Q96SW2 whole entry, looked up): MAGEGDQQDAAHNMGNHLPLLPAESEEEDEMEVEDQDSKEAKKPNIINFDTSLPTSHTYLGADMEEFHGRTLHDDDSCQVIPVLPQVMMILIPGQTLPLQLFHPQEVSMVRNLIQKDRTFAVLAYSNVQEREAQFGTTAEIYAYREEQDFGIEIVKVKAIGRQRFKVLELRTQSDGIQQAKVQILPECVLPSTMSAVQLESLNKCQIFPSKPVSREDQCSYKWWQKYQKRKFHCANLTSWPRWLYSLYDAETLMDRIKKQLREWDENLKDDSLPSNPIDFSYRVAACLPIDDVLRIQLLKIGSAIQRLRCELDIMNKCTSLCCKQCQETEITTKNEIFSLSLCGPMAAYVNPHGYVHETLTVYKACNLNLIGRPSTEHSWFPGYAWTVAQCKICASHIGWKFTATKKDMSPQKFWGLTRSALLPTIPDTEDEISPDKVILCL

[2] = test system: HL-60; test: Induction of pro-differentiation of human HL-60 cells assessed as CD11b expression at 1 nM measured after 5 days by immunostaining-based flow cytometry (reference value: 10.08 to 10.33%); format: functional; details: time 5 day
[3] = target: T2, Protein cereblon/Cyclin-dependent kinase 1 (Homo sapiens) (UniProt P06493+Q96SW2); test: Protac activity at CRBN/CDK1 in human Kasumi 1 cells assessed as induction of CDK1 degradation at 2 to 32 nM measured after 3 days by Western blot analysis; format: cell-based; details: dose 2-32 nM, time 3.0 day
[4] = target: T3, Protein cereblon/Cyclin-dependent kinase 6 (Homo sapiens, UniProt Q00534+Q96SW2); test: Protac activity at CRBN/CDK6 in human HL-60 cells assessed as induction of CDK6 degradation measured after 3 days by Western blot analysis; format: cell-based
Target sequence in this assay (Q00534 whole entry): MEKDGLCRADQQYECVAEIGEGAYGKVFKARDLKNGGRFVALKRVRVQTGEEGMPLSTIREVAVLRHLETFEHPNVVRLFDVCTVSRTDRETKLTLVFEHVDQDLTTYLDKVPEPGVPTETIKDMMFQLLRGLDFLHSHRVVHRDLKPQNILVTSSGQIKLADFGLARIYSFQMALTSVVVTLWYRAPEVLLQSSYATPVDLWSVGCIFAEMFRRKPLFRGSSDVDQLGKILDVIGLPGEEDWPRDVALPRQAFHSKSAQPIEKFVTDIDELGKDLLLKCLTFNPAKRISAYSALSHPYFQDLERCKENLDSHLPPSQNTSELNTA
Target sequence in this assay (Q96SW2 whole entry): as the sequence (Q96SW2 whole entry, looked up) above

[5] = test system: HL-60; test: Induction of pro-differentiation of human HL-60 cells assessed as CD11b expression at 4 nM measured after 5 days by immunostaining-based flow cytometry (reference value: 10.08 to 10.33%); format: functional; details: time 5 day
[6] = test system: HL-60; test: Induction of pro-differentiation of human HL-60 cells assessed as increase in CD11b expression measured after 3 to 5 days by immunostaining-based flow cytometry; format: functional, cell-based; details: dose 1-6.25 nM, time 3-5 day
[7] = test system: HL-60; test: Antiproliferative activity against human HL-60 cells measured after 1 to 3 days by CCK-8 assay; format: functional, cell-based
[8] = test system: HL-60; test: Induction of pro-differentiation of human HL-60 cells assessed as CD11b expression at 2 nM measured after 5 days by immunostaining-based flow cytometry (reference value: 10.08 to 10.33%); format: functional; details: time 5 day
[9] = target: T3, Protein cereblon/Cyclin-dependent kinase 6; test: Protac activity at CRBN/CDK6 in human MV4-11 cells assessed as induction of CDK6 degradation at 2 to 32 nM measured after 3 days by Western blot analysis; format: cell-based; details: dose 2-32 nM, time 3.0 day
Target sequence in this assay (Q00534 whole entry, looked up): as the sequence (Q00534 whole entry) above
Target sequence in this assay (Q96SW2 whole entry, looked up): as the sequence (Q96SW2 whole entry, looked up) above

[10] = target: T4, Protein cereblon/Cyclin-dependent kinase 2 (Homo sapiens, UniProt P24941+Q96SW2); test: Protac activity at CRBN/CDK2 in human HL-60 cells assessed as induction of CDK2 degradation by Western blot analysis; format: cell-based
[11] = test system: HL-60; test: Induction of pro-differentiation of human HL-60 cells assessed as increase in CD11b expression at 6.25 nM measured after 5 days by immunostaining-based flow cytometry relative to 500 nM CPS2; format: functional; details: time 5 day
[12] = target: T4, Protein cereblon/Cyclin-dependent kinase 2; test: Protac activity at CRBN/CDK2 in human THP-1 cells assessed as induction of CDK2 degradation at 4 to 64 nM measured after 3 days by Western blot analysis; format: cell-based; details: dose 4-64 nM, time 3.0 day
[13] = test system: HL-60; test: Induction of pro-differentiation of human HL-60 cells assessed as CD11b expression at 4 nM measured after 3 days by immunostaining-based flow cytometry (reference value: 8.32 to 10.55%); format: functional; details: time 3 day
[14] = target: T4, Protein cereblon/Cyclin-dependent kinase 2; test: Protac activity at CRBN/CDK2 in human HL-60 cells assessed as induction of CDK2 degradation by Western blot analysis relative to control; format: cell-based
[15] = target: T5, Protein cereblon/Cyclin-dependent kinase 4 (Homo sapiens, UniProt P11802+Q96SW2); test: Protac activity at CRBN/CDK4 in human MV4-11 cells assessed as induction of CDK4 degradation at 2 to 32 nM measured after 3 days by Western blot analysis; format: cell-based; details: dose 2-32 nM, time 3.0 day
Target sequence in this assay (P11802 2-303 limits assumed): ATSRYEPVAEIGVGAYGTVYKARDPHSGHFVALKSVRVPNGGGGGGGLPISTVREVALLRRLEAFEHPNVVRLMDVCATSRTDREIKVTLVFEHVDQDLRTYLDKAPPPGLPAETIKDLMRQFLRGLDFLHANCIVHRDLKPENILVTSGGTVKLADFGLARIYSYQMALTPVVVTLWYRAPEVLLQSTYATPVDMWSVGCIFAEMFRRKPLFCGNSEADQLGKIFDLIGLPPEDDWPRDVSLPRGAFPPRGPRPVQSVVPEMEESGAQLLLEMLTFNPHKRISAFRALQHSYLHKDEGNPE
Target sequence in this assay (Q96SW2 whole entry partner): as the sequence (Q96SW2 whole entry, looked up) above

[16] = target: T6, Protein cereblon/Cyclin-dependent kinase 5 (Homo sapiens) (UniProt Q00535+Q96SW2); test: Protac activity at CRBN/CDK5 in human THP-1 cells assessed as induction of CDK5 degradation at 4 to 64 nM measured after 3 days by Western blot analysis; format: cell-based; details: dose 4-64 nM, time 3.0 day
[17] = target: T2, Protein cereblon/Cyclin-dependent kinase 1 (Homo sapiens); test: Protac activity at CRBN/CDK1 in human THP-1 cells assessed as induction of CDK1 degradation at 4 to 64 nM measured after 3 days by Western blot analysis; format: cell-based; details: dose 4-64 nM, time 3.0 day
[18] = target: T4, Protein cereblon/Cyclin-dependent kinase 2; test: Protac activity at CRBN/CDK2 in human HL-60 cells assessed as induction of CDK2 degradation at 10 nM measured at 12 hrs by Western blot analysis; format: cell-based
[19] = target: T4, Protein cereblon/Cyclin-dependent kinase 2; test: Protac activity at CRBN/CDK2 in human HL-60 cells assessed as induction of CDK2 degradation at 10 nM measured after 24 hrs in presence of CRBN ligand thalidomide by Western blot analysis; format: cell-based
[20] = target: T4, Protein cereblon/Cyclin-dependent kinase 2; test: Protac activity at CRBN/CDK2 in human HL-60 cells assessed as induction of CDK2 degradation measured after 24 hrs by Western blot analysis relative to control; format: cell-based
[21] = target: T1, Protein cereblon/Cyclin-dependent kinase 9; test: Protac activity at CRBN/CDK9 in human THP-1 cells assessed as induction of CDK9 degradation at 4 to 64 nM measured after 3 days by Western blot analysis; format: cell-based; details: dose 4-64 nM, time 3.0 day
Target sequence in this assay (P50750 whole entry, looked up): as the sequence (P50750 whole entry, looked up) above
Target sequence in this assay (Q96SW2 whole entry, looked up): as the sequence (Q96SW2 whole entry, looked up) above

[22] = target: T6, Protein cereblon/Cyclin-dependent kinase 5 (Homo sapiens); test: Protac activity at CRBN/CDK5 in human MV4-11 cells assessed as induction of CDK5 degradation at 2 to 32 nM measured after 3 days by Western blot analysis; format: cell-based; details: dose 2-32 nM, time 3.0 day
[23] = target: T1, Protein cereblon/Cyclin-dependent kinase 9; test: Protac activity at CRBN/CDK9 in human HL-60 cells assessed as induction of CDK9 degradation measured after 3 days by Western blot analysis; format: cell-based
Target sequence in this assay (P50750 whole entry): as the sequence (P50750 whole entry, looked up) above
Target sequence in this assay (Q96SW2 whole entry): as the sequence (Q96SW2 whole entry, looked up) above

[24] = test system: NB-4; test: Antiproliferative activity against human NB4 cells measured after 1 to 3 days by CCK-8 assay; format: functional, cell-based
[25] = target: T2, Protein cereblon/Cyclin-dependent kinase 1 (Homo sapiens); test: Protac activity at CRBN/CDK1 in human HL-60 cells assessed as induction of CDK1 degradation at 4 to 64 nM measured after 3 days by Western blot analysis; format: cell-based; details: dose 4-64 nM, time 3.0 day
[26] = target: T3, Protein cereblon/Cyclin-dependent kinase 6; test: Protac activity at CRBN/CDK6 in human THP-1 cells assessed as induction of CDK6 degradation at 4 to 64 nM measured after 3 days by Western blot analysis; format: cell-based; details: dose 4-64 nM, time 3.0 day
Target sequence in this assay (Q00534 whole entry, looked up): as the sequence (Q00534 whole entry) above
Target sequence in this assay (Q96SW2 whole entry, looked up): as the sequence (Q96SW2 whole entry, looked up) above

[27] = target: T4, Protein cereblon/Cyclin-dependent kinase 2; test: Protac activity at CRBN/CDK2 in human HL-60 cells assessed as induction of CDK2 degradation at 10 nM measured after 24 hrs in presence of NEDD8-activated E1 enzyme inhibitor MLN4924 by Western blot analysis; format: cell-based
[28] = target: T5, Protein cereblon/Cyclin-dependent kinase 4; test: Protac activity at CRBN/CDK4 in human Kasumi 1 cells assessed as induction of CDK4 degradation at 2 to 32 nM measured after 3 days by Western blot analysis; format: cell-based; details: dose 2-32 nM, time 3.0 day
Target sequence in this assay (P11802 2-303 limits assumed): as the sequence (P11802 2-303 limits assumed) above
Target sequence in this assay (Q96SW2 whole entry partner): as the sequence (Q96SW2 whole entry, looked up) above

[29] = target: T1, Protein cereblon/Cyclin-dependent kinase 9; test: Protac activity at CRBN/CDK9 in human Kasumi 1 cells assessed as induction of CDK9 degradation at 2 to 32 nM measured after 3 days by Western blot analysis; format: cell-based; details: dose 2-32 nM, time 3.0 day
Target sequence in this assay (P50750 whole entry, looked up): as the sequence (P50750 whole entry, looked up) above
Target sequence in this assay (Q96SW2 whole entry, looked up): as the sequence (Q96SW2 whole entry, looked up) above

[30] = target: T5, Protein cereblon/Cyclin-dependent kinase 4; test: Protac activity at CRBN/CDK4 in human HL-60 cells assessed as induction of CDK4 degradation measured after 3 days by Western blot analysis; format: cell-based
Target sequence in this assay (P11802 whole entry): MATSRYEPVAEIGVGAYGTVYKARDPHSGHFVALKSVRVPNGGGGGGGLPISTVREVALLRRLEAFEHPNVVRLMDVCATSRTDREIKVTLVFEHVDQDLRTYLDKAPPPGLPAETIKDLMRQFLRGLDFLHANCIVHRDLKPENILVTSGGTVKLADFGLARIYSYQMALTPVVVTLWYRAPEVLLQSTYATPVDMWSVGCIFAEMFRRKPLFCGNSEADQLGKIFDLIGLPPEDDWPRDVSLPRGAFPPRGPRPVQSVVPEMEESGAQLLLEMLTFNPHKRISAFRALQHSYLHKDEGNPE
Target sequence in this assay (Q96SW2 whole entry): as the sequence (Q96SW2 whole entry, looked up) above

[31] = target: T6, Protein cereblon/Cyclin-dependent kinase 5 (Homo sapiens); test: Protac activity at CRBN/CDK5 in human Kasumi 1 cells assessed as induction of CDK5 degradation at 2 to 32 nM measured after 3 days by Western blot analysis; format: cell-based; details: dose 2-32 nM, time 3.0 day
[32] = target: T5, Protein cereblon/Cyclin-dependent kinase 4; test: Protac activity at CRBN/CDK4 in human THP-1 cells assessed as induction of CDK4 degradation at 4 to 64 nM measured after 3 days by Western blot analysis; format: cell-based; details: dose 4-64 nM, time 3.0 day
Target sequence in this assay (P11802 2-303 limits assumed): as the sequence (P11802 2-303 limits assumed) above
Target sequence in this assay (Q96SW2 whole entry partner): as the sequence (Q96SW2 whole entry, looked up) above

[33] = target: T4, Protein cereblon/Cyclin-dependent kinase 2; test: Protac activity at CRBN/CDK2 in human MV4-11 cells assessed as induction of CDK2 degradation at 2 to 32 nM measured after 3 days by Western blot analysis; format: cell-based; details: dose 2-32 nM, time 3.0 day

T2 sequence (P06493 whole entry, looked up): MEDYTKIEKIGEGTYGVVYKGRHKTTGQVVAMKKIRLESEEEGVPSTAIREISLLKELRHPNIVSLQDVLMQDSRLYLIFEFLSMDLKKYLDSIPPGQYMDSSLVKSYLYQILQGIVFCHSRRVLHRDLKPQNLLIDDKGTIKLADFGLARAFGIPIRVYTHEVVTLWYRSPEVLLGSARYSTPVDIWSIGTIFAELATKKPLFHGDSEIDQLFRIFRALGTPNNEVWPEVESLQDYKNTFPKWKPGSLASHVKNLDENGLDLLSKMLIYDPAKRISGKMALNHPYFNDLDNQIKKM
T2 sequence (Q96SW2 whole entry, looked up): as the sequence (Q96SW2 whole entry, looked up) above
T6 sequence (Q00535 whole entry, looked up): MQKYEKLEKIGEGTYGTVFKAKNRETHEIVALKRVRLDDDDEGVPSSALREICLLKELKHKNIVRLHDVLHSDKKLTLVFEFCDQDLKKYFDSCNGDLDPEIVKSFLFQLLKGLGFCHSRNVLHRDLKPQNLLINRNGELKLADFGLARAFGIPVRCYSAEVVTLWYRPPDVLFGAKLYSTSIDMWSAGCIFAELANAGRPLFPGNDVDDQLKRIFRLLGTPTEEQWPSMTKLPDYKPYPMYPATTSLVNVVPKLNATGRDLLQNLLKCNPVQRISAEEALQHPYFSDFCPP
T6 sequence (Q96SW2 whole entry, looked up): as the sequence (Q96SW2 whole entry, looked up) above

## O=C1CCC(N2C(=O)c3ccc(N4CCC(CN5CCN(Cc6ccc(NC(=O)c7n[nH]cc7Nc7ncnc8[nH]ccc78)cc6)CC5)CC4)cc3C2=O)C(=O)N1 (stereo not drawn)
[1]
  Activity: Active
[2]
  Activity: 29.85%
[3]
  Activity: inactive
[4]
  DC50: 2.71 nM
[5]
  Activity: 58.59%
[6]
  Activity: Dose-Dependent Effect
[7]
  IC50: 10.5 nM
[8]
  Activity: 36.57%
[9]
  Activity: Active
[10]
  DC50: 12.7 nM
[11]
  fold change (FC): 2.1
[12]
  Activity: Active
[13]
  Activity: 43.94%
[14]
  Emax: 81.9%
[15]
  Activity: Active
[16]
  Activity: inactive
[17]
  Activity: inactive
[18]
  Activity: Active
[19]
  Activity: inactive
[20]
  Emax: 86.8%
[21]
  Activity: Active
[22]
  Activity: inactive
[23]
  DC50: 4.34 nM
[24]
  IC50: 4.94 nM
[25]
  Activity: inactive
[26]
  Activity: Active
[27]
  Activity: inactive
[28]
  Activity: Active
[29]
  Activity: Active
[30]
  DC50: 4.41 nM
[31]
  Activity: inactive
[32]
  Activity: Active
[33]
  Activity: Active
